Experiment: wn = mass fraction of the nth substance listed
Conditions: 100 kPa, Liquid; for viscosity: Falling or rolling sphere viscometry; for speed of sound: Frequency=3 MHz, Single path-length method; for mass density: Vibrating tube method

CCCO [propan-1-ol] + O
Conditions	mass density [kg/m3]	speed of sound [m/s]	viscosity [mPa·s]
288.15 K, w1 = 0.1	985.245	1564.4	1.82
288.15 K, w1 = 0.2	971.452	1587.4	2.723
288.15 K, w1 = 0.3	954.251	1533.5	3.208
288.15 K, w1 = 0.4	934.617	1485.7	3.575
293.15 K, w1 = 0.1	983.869	1570.1	1.545
293.15 K, w1 = 0.2	969.02	1581.6	2.232
293.15 K, w1 = 0.3	950.883	1526.5	2.618
293.15 K, w1 = 0.4	931.255	1477.2	2.92
298.15 K, w1 = 0.1	982.336	1574.3	1.333
298.15 K, w1 = 0.2	966.338	1575.5	1.852
298.15 K, w1 = 0.3	948.039	1519.6	2.174
298.15 K, w1 = 0.4	927.818	1468	2.436
303.15 K, w1 = 0.1	980.428	1577.4	1.156
303.15 K, w1 = 0.2	963.667	1569.5	1.567
303.15 K, w1 = 0.3	945.132	1512.6	1.841
303.15 K, w1 = 0.4	924.386	1458.6	2.056

CC(C)O [propan-2-ol] + O
Conditions	mass density, w1 = 0.1 [kg/m3]	mass density, w1 = 0.2 [kg/m3]	mass density, w1 = 0.3 [kg/m3]	speed of sound, w1 = 0.1 [m/s]	speed of sound, w1 = 0.2 [m/s]	speed of sound, w1 = 0.3 [m/s]	viscosity, w1 = 0.1 [mPa·s]	viscosity, w1 = 0.2 [mPa·s]	viscosity, w1 = 0.3 [mPa·s]
288.15 K	983.401	971.675	954.62	1573.7	1638.6	1586.9	1.936	3.087	4.014
293.15 K	982.158	969.345	951.686	1578.9	1629.4	1574.7	1.633	2.485	3.172
298.15 K	980.642	966.771	948.106	1582.9	1620.2	1562.8	1.395	2.045	2.555
303.15 K	978.882	964.199	945.121	1585.7	1611	1549.6	1.208	1.71	2.105

— the NIST ThermoML archive (doi:10.1016/j.jct.2019.105880)
